Where two headings read alike, the source gives them in different places.
Assays:
[1] = system: DENV-3; test: Viral yield assay against DENV-3 in Vero cells; type: cell-based; conditions: Dengue virus
Description: (§1) Compounds that were active in the primary screen were tested for activity in viral yield assays. […] Vero cells in 12-well plates were infected with dengue-2 virus at a multiplicity of infection (MOI) of 0.1, treated with compound (or DMSO as a control), incubated at 37° C., harvested 48 hours post infection and titered on Vero cells as described above. The EC50 was calculated through ExcelFit. Activities against other serotypes of dengue virus were determined in a similar way.

[2] = system: DENV-1; test: Viral yield assay against DENV-1 in Vero cells; type: cell-based; conditions: Dengue virus
Description: as §1

[3] = system: Dengue-2 (Strain New Guinea C); test: Viral yield assay against Dengue-2 in Vero cells; type: cell-based, Dengue virus; conditions: Dengue virus, read-out: Activity (EC50 in μM) DENV-2
Method in brief: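 Yield reduction, Vero; MOI 0.1; compound vs DMSO; 37° C; harvest 48 h p.i.; titer on Vero; EC50 fitted. Other serotypes run the same way.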

[4] = system: DENV-4; test: Viral yield assay against DENV-4 in Vero cells; type: cell-based; conditions: Dengue virus
Description: as §1

[5] = DENV2, viral yield assay, Vero cells, MOI 0.1, 48 hours post infection

Compound: COc1cccc(-c2ccc3c(N)c(C(=O)Nc4cccc(Cl)c4)sc3n2)c1 [Compound 561, 3-amino-N-(3-chlorophenyl)-6-(3-methoxyphenyl)thieno[2,3-b]pyridine-2-carboxamide]
- EC50 ([1]; DENV3, viral yield assay): < 5 µM
- EC50 ([2]; DENV1, viral yield assay): < 5 µM
- EC50 [3, 5]: < 5 µM
- EC50 ([4]; DENV4, viral yield assay): < 5 µM

Compound: Nc1c(C(=O)Nc2ccc3c(c2)OCO3)sc2nc(-c3ccc4c(c3)OCO4)ccc12 [Compound 591, 3-amino-N,6-bis(1,3-benzodioxol-5-yl) thieno[2,3-b]pyridine-2-carboxamide]
- EC50 ([1]; DENV3, viral yield assay): < 5 µM
- EC50 ([2]; DENV1, viral yield assay): < 5 µM
- EC50 ([3]; DENV2, Vero, 48 h): < 5 µM
- EC50 ([4]; DENV4, viral yield assay): < 5 µM

Compound: Cc1ccc(NC(=O)c2sc3nc(-c4ccc5c(c4)OCO5)ccc3c2N)c(Br)c1 [Compound 514, 3-amino-6-(1,3-benzodioxol-5-yl)-N-(2-bromo-4-methyl-phenyl)thieno[2,3-b] pyridine-2-carboxamide]
- EC50 ([1]; DENV3, viral yield assay): < 5 µM
- EC50 ([2]; DENV1, viral yield assay): < 5 µM
- EC50 [3, 5]: < 5 µM
- EC50 ([4]; DENV4, viral yield assay): < 5 µM

Compound: COc1ccc(OC)c(NC(=O)c2sc3nc(-c4cccs4)ccc3c2N)c1 [Compound 441, 3-amino-N-(2,5-dimethoxyphenyl)-6-(2-thienyl)thieno[2,3-b]pyridine-2-carboxamide]
- EC50 ([1]; DENV3, viral yield assay): < 5 µM
- EC50 ([2]; DENV1, viral yield assay): < 5 µM
- EC50 ([3]; DENV2, Vero, 48 h): < 5 µM
- EC50 ([4]; DENV4, viral yield assay): < 5 µM

Compound: O=C(O)CN(CC(=O)O)c1c(C(=O)Nc2cccc(C(F)(F)F)c2)sc2nc(-c3cccs3)ccc12 [Compound 363, 2-[carboxymethyl-[6-(2-thienyl)-2-[[3-(trifluoromethyl)phenyl]carbamoyl]thieno[2,3-b]pyridin-3-yl]amino]acetic acid]
- EC50 ([1]; DENV3): > 25 µM
- EC50 ([2]; DENV1): 5 to 25 µM
- EC50 ([3]; DENV2, Vero cells): < 5 µM
- EC50 ([4]; DENV4): > 25 µM

Compound: COc1ccc(NC(=O)c2sc3nc(-c4ccc(F)cc4)ccc3c2N)cc1 [Compound 535, 3-amino-6-(4-fluorophenyl)-N-(4-methoxyphenyl)thieno[2,3-b]pyridine-2-carboxamide]
- EC50 ([1]; DENV3, viral yield assay): < 5 µM
- EC50 ([2]; DENV1, viral yield assay): < 5 µM
- EC50 [3, 5]: < 5 µM
- EC50 ([4]; DENV4, viral yield assay): < 5 µM

Compound: NCC(=O)Nc1c(C(=O)Nc2nnc(-c3ccccc3)s2)sc2nc(Cl)ccc12 [Compound 361, 3-[(2-aminoacetyl)amino]-6-chloro-N-(5-phenyl-1,3,4-thiadiazol-2-yl)thieno[2,3-b]pyridine-2-carboxamide]
- EC50 ([1]; DENV3): < 5 µM
- EC50 ([2]; DENV1): < 5 µM
- EC50 ([3]; DENV2, Vero cells): < 5 µM
- EC50 ([4]; DENV4): > 25 µM

Compound: Nc1c(C(=O)N(c2ccccc2)c2ccccc2)sc2nc3c(cc12)CCCCC3 [Compound 373, 3-amino-N,N-diphenyl-6,7,8,9-tetrahydro-5H-cyclohepta[b]thieno[3,2-e]pyridine-2-carboxamide]
- EC50 ([1]; DENV3, viral yield assay): < 5 µM
- EC50 ([2]; DENV1, viral yield assay): < 5 µM
- EC50 [3, 5]: < 5 µM
- EC50 ([4]; DENV4, viral yield assay): < 5 µM

Compound: COc1ccc(C(F)(F)F)cc1NC(=O)c1sc2nc(-c3ccc4c(c3)OCO4)ccc2c1N [Compound 599, 3-amino-6-(1,3-benzodioxol-5-yl)-N-[2-methoxy-5-(trifluoromethyl)phenyl]thieno [2,3-b]pyridine-2-carboxamide]
- EC50 ([1]; DENV3, viral yield assay): < 5 µM
- EC50 ([2]; DENV1, viral yield assay): < 5 µM
- EC50 [3, 5]: < 5 µM
- EC50 ([4]; DENV4, viral yield assay): < 5 µM

Compound: CCOC(=O)c1ccc(NC(=O)c2sc3nc(-c4ccc(C)cc4)ccc3c2N)cc1 [Compound 638, ethyl 4-[[3-amino-6-(p-tolyl)thieno [2,3-b]pyridine-2-carbonyl]amino] benzoate]
- EC50 ([1]; DENV3, viral yield assay): < 5 µM
- EC50 ([2]; DENV1, viral yield assay): < 5 µM
- EC50 [3, 5]: < 5 µM
- EC50 ([4]; DENV4, viral yield assay): < 5 µM

Compound: COc1cccc(-c2ccc3c(N)c(C(=O)Nc4cc(Cl)ccc4Cl)sc3n2)c1 [Compound 495, 3-amino-N-(2,5-dichlorophenyl)-6-(3-methoxyphenyl)thieno[2,3-b]pyridine-2-carboxamide]
- EC50 ([1]; DENV3, viral yield assay): < 5 µM
- EC50 ([2]; DENV1, viral yield assay): < 5 µM
- EC50 [3, 5]: < 5 µM
- EC50 ([4]; DENV4, viral yield assay): < 5 µM

Compound: CCCCSc1ccccc1NC(=O)c1sc2nc(-c3cccc(OC)c3)ccc2c1N [Compound 572, 3-amino-N-(2-butylsulfanylphenyl)-6-(3-methoxyphenyl)thieno[2,3-b]pyridine-2-carboxamide]
- EC50 ([1]; DENV3, viral yield assay): < 5 µM
- EC50 ([2]; DENV1, viral yield assay): < 5 µM
- EC50 [3, 5]: < 5 µM
- EC50 ([4]; DENV4, viral yield assay): < 5 µM

Compound: COc1cccc(-c2ccc3c(N)c(C(=O)Nc4ccc(SC)cc4)sc3n2)c1 [Compound 566, 3-amino-6-(3-methoxyphenyl)-N-(4-methylsulfanylphenyl)thieno[2,3-b] pyridine-2-carboxamide]
- EC50 ([1]; DENV3, viral yield assay): < 5 µM
- EC50 ([2]; DENV1, viral yield assay): < 5 µM
- EC50 [3, 5]: < 5 µM
- EC50 ([4]; DENV4, viral yield assay): < 5 µM

Compound: COc1ccc(-c2ccc3c(N)c(C(=O)Nc4ccc(Br)cc4)sc3n2)cc1 [Compound 469, 3-amino-N-(4-bromophenyl)-6-(4-methoxyphenyl)thieno[2,3-b]pyridine-2-carboxamide]
- EC50 ([1]; DENV3, viral yield assay): < 5 µM
- EC50 ([2]; DENV1, viral yield assay): < 5 µM
- EC50 [3, 5]: < 5 µM
- EC50 ([4]; DENV4, viral yield assay): < 5 µM

Compound: COc1ccc(-c2ccc3c(N)c(C(=O)Nc4ccc(C)c(Cl)c4)sc3n2)cc1OC [Compound 574, 3-amino-N-(3-chloro-4-mehtyl-phenyl)-6-(3,4-dimethoxyphenyl)thieno[2,3-b] pyridine-2-carboxamide]
- EC50 ([1]; DENV3, viral yield assay): < 5 µM
- EC50 ([2]; DENV1, viral yield assay): < 5 µM
- EC50 [3, 5]: < 5 µM
- EC50 ([4]; DENV4, viral yield assay): < 5 µM

Compound: COc1ccc(NC(=O)c2sc3nc(-c4cccs4)ccc3c2N)cc1 [Compound 427, 3-amino-N-(4-methoxyphenyl)-6-(2-thienyl)thieno[2,3-b]pyridine-2-carboxamide]
- EC50 ([1]; DENV3, viral yield assay): < 5 µM
- EC50 ([2]; DENV1, viral yield assay): < 5 µM
- EC50 [3, 5]: < 5 µM
- EC50 ([4]; DENV4, viral yield assay): < 5 µM

Compound: COc1ccc(-c2ccc3c(N)c(C(=O)Nc4ccc(C(F)(F)F)cc4)sc3n2)cc1OC [Compound 475, 3-amino-6-(3,4-dimethoxyphenyl)-N-[4-(trifluoromethyl)phenyl]thieno[2,3-b] pyridine-2-carboxamide]
- EC50 ([1]; DENV3, viral yield assay): < 5 µM
- EC50 ([2]; DENV1, viral yield assay): < 5 µM
- EC50 [3, 5]: < 5 µM
- EC50 ([4]; DENV4, viral yield assay): < 5 µM

Compound: CCc1cccc(NC(=O)c2sc3nc(-c4ccc(F)cc4)ccc3c2N)c1 [Compound 609, 3-amino-N-(3-ethylphenyl)-6-(4-fluorophenyl)thieno[2,3-b]pyridine-2-carboxamide]
- EC50 ([1]; DENV3, viral yield assay): 5 to 25 µM
- EC50 ([2]; DENV1, viral yield assay): < 5 µM
- EC50 [3, 5]: < 5 µM
- EC50 ([4]; DENV4, viral yield assay): 5 to 25 µM

Compound: Nc1c(C(=O)Nc2nnc(-c3ccccc3)s2)sc2nc3c(cc12)C(O)CCCC3 (stereo not drawn) [Compound 329]
- EC50 ([1]; DENV3, viral yield assay): 5 to 25 µM
- EC50 ([2]; DENV1, viral yield assay): < 5 µM
- EC50 [3, 5]: < 5 µM
- EC50 ([4]; DENV4, viral yield assay): < 5 µM

Compound: CCNc1c(C(=O)Nc2cccc(C(F)(F)F)c2)sc2nc(-c3cccs3)ccc12 [Compound 321, 3-(ethylamino)-6-(2-thienyl)-N-[3-(trifluoromethyl)phenyl]thieno[2,3-b]pyridine-2-carboxamide]
- EC50 ([1]; DENV3): < 5 µM
- EC50 ([2]; DENV1): < 5 µM
- EC50 ([3]; DENV2, Vero cells): < 5 µM
- EC50 ([4]; DENV4): < 5 µM

Compound: COC(=O)c1ccc(NC(=O)c2sc3nc(-c4ccc(Cl)cc4)ccc3c2N)cc1 [Compound 645, methyl 4-[[3-amino-6-(4-chlorophenyl)thieno[2,3-b]pyridine-2-carbonyl]amino]benzoate]
- EC50 ([1]; DENV3, viral yield assay): < 5 µM
- EC50 ([2]; DENV1, viral yield assay): < 5 µM
- EC50 [3, 5]: < 5 µM
- EC50 ([4]; DENV4, viral yield assay): < 5 µM

Compound: COc1ccc(NC(=O)c2sc3nc(-c4ccc(Cl)cc4)ccc3c2N)c(OC)c1 [Compound 652, 3-amino-6-(4-chlorophenyl)-N-(2,4-dimethoxyyphenyl)thieno[2,3-b]pyridine-2-carboxamide]
- EC50 ([1]; DENV3, viral yield assay): < 5 µM
- EC50 ([2]; DENV1, viral yield assay): < 5 µM
- EC50 [3, 5]: < 5 µM
- EC50 ([4]; DENV4, viral yield assay): < 5 µM

Compound: O=C(Nc1c(C(=O)Nc2nnc(-c3ccccc3)s2)sc2nc3c(cc12)CCCCC3)c1ccccn1 [Compound 360, N-(5-phenyl-1,3,4-thiadiazol-2-yl)-3-(picolinamido)-6,7,8,9-tetrahydro-5H-cyclohepta[b]thieno[3,2-e]pyridine-2-carboxamide]
- EC50 ([1]; DENV3): > 25 µM
- EC50 ([2]; DENV1): > 25 µM
- EC50 ([3]; DENV2, Vero cells): < 5 µM
- EC50 ([4]; DENV4): < 5 µM

Compound: Nc1c(C(=O)Nc2cccc(Cl)c2)sc2nc(-c3ccc(Cl)cc3)ccc12 [Compound 344, 3-amino-N-(3-chlorophenyl)-6-(4-chloro-phenyl)thieno[2,3-b]pyridine-2-carboxamide]
- EC50 ([1]; DENV3, viral yield assay): < 5 µM
- EC50 ([2]; DENV1, viral yield assay): < 5 µM
- EC50 [3, 5]: < 5 µM
- EC50 ([4]; DENV4, viral yield assay): < 5 µM

Compound: CN1CCc2nc3sc(C(=O)Nc4nnc(-c5ccccc5)s4)c(N)c3cc2C1 [Compound 301, 3-amino-6-methyl-N-(5-phenyl-1,3,4-thiadiazol-2-yl)-7,8-dihydro-5H-thieno[2,3-b][1,6]naphthyridine-2-carboxamide]
- EC50 ([1]; DENV3, viral yield assay): 5 to 25 µM
- EC50 ([2]; DENV1, viral yield assay): < 5 µM
- EC50 [3, 5]: < 5 µM
- EC50 ([4]; DENV4, viral yield assay): < 5 µM

Compound: CC(=O)c1ccc2c(N)c(C(=O)Nc3ccc(C(F)(F)F)cc3)sc2n1 [Compound 483, 6-acetyl-3-amino-N-[4-(trifluoromethyl)phenyl]thieno[2,3-b] pyridine-2-carboxamide]
- EC50 ([1]; DENV3, viral yield assay): < 5 µM
- EC50 ([2]; DENV1, viral yield assay): < 5 µM
- EC50 [3, 5]: < 5 µM
- EC50 ([4]; DENV4, viral yield assay): < 5 µM

Compound: NCCNc1c(C(=O)Nc2nnc(-c3ccccc3)s2)sc2nc(Cl)ccc12 [Compound 300, 3-(2-aminoethylamino)-6-chloro-N-(5-phenyl-1,3,4-thiadiazol-2-yl)thieno[2,3-b]pyridine-2-carboxamide]
- EC50 ([1]; DENV3): < 5 µM
- EC50 ([2]; DENV1): < 5 µM
- EC50 ([3]; DENV2, Vero cells): < 5 µM
- EC50 ([4]; DENV4): < 5 µM

— patent US20170121344A1 (Siga Technologies, Inc., priority 2009, published 2017)
